Results as given in PubChem BioAssay AID248 (DTP/NCI, 2004).
Where “and” joins values, the source holds several entries; their conditions need not be identical. Equal entries are not always repeated. Inconclusive results and toxic doses are left out.

System: L1210 leukemia ip in BDF1 mice, survival T/C
Experiment: NCI In Vivo Anticancer Drug Screen. Data for tumor model L1210 Leukemia (intraperitoneal) in B6D2F1 (BDF1) mice
Settings: higher = longer survival
Procedure, shortened: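 In this screen, tumor-bearing mice given compound are compared to those given vehicle, and their survival values are reported as a treated-to-control quotient.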

With COC(=O)c1ccc(N=NN(C)C)cc1 the T/C (endpoint: median survival time, dose: 65.0 mg/kg/injection, schedule: Q01DX001 (ip), vehicle: steriod suspending solution) was 100 % of control, the T/C (endpoint: median survival time, dose: 108.0 mg/kg/injection, schedule: Q01DX001 (ip), vehicle: steriod suspending solution) was 110 % of control and the T/C (endpoint: median survival time, dose: 108.0 mg/kg/injection, schedule: Q01DX009 (ip), vehicle: steriod suspending solution) was 100 % of control. The T/C (endpoint: median survival time, dose: 180.0 mg/kg/injection, schedule: Q01DX001 (ip), vehicle: steriod suspending solution) was 110 % of control and the T/C (endpoint: median survival time, dose: 180.0 mg/kg/injection, schedule: Q04DX003 (ip), vehicle: steriod suspending solution) was 150 % of control.
COC1=C(N)C(=O)c2nc(-c3nc(C(=O)O)c(C)c(-c4ccc(OC)c(OC)c4O)c3N)ccc2C1=O was tested, and the T/C (endpoint: mean survival time, dose: 0.02 mg/kg/injection, schedule: Q01DX009 (ip), vehicle: other) was 86 % of control, the T/C (endpoint: mean survival time, dose: 0.05 mg/kg/injection, schedule: Q01DX009 (ip), vehicle: other) was 94 % of control and the T/C (endpoint: mean survival time, dose: 0.05 mg/kg/injection, schedule: Q04DX002 (ip), vehicle: saline) was 106 % of control. For the same compound, the T/C (endpoint: mean survival time, dose: 0.1 mg/kg/injection, schedule: Q01DX Z (ip), vehicle: alkali diluted with CMC) was 103 % of control and 109 % of control, the T/C (endpoint: mean survival time, dose: 0.1 mg/kg/injection, schedule: Q01DX Z (ip), vehicle: water) was 105 % of control and the T/C (endpoint: mean survival time, dose: 0.1 mg/kg/injection, schedule: Q04DX002 (ip), vehicle: saline) was 120 % of control. The T/C (endpoint: mean survival time, dose: 0.12 mg/kg/injection, schedule: Q01DX001 (iv), vehicle: other) was 102 % of control, the T/C (endpoint: mean survival time, dose: 0.12 mg/kg/injection, schedule: Q01DX009 (ip), vehicle: saline) was 106 % of control and the T/C (endpoint: mean survival time, dose: 0.18 mg/kg/injection, schedule: Q01DX001 (ip), vehicle: other) was 124 % of control. For the same compound, the T/C (endpoint: mean survival time, dose: 0.2 mg/kg/injection, schedule: Q01DX009 (ip), vehicle: other) was 102 % of control, the T/C (endpoint: mean survival time, dose: 0.2 mg/kg/injection, schedule: Q01DX Z (ip), vehicle: alkali diluted with CMC) was 96 % of control and 106 % of control and the T/C (endpoint: mean survival time, dose: 0.2 mg/kg/injection, schedule: Q01DX Z (ip), vehicle: water) was 105 % of control. For the same compound, the T/C (endpoint: mean survival time, dose: 0.2 mg/kg/injection, schedule: Q04DX002 (ip), vehicle: saline) was 113 % of control, the T/C (endpoint: mean survival time, dose: 0.25 mg/kg/injection, schedule: Q01DX001 (iv), vehicle: other) was 114 % of control and the T/C (endpoint: mean survival time, dose: 0.25 mg/kg/injection, schedule: Q01DX009 (ip), vehicle: saline) was 106 % of control and 116 % of control. For the same compound, the T/C (endpoint: mean survival time, dose: 0.25 mg/kg/injection, schedule: Q01DX015 (ip), vehicle: water) was 118 % of control, the T/C (endpoint: mean survival time, dose: 0.3 mg/kg/injection, schedule: Q01DX Z (ip), vehicle: water) was 102 % of control and the T/C (endpoint: mean survival time, dose: 0.39 mg/kg/injection, schedule: Q04DX002 (ip), vehicle: saline) was 110 % of control. The T/C (endpoint: mean survival time, dose: 0.4 mg/kg/injection, schedule: Q01DX Z (ip), vehicle: alkali diluted with CMC) was 104 % of control and 106 % of control, the T/C (endpoint: mean survival time, dose: 0.45 mg/kg/injection, schedule: Q01DX Z (ip), vehicle: saline) was 107 % of control and the T/C (endpoint: mean survival time, dose: 0.5 mg/kg/injection, schedule: Q01DX001 (ip), vehicle: carboxymethylcellulose (CMC)) was 95 % of control. The T/C (endpoint: mean survival time, dose: 0.5 mg/kg/injection, schedule: Q01DX001 (iv), vehicle: other) was 105 % of control, the T/C (endpoint: mean survival time, dose: 0.5 mg/kg/injection, schedule: Q01DX009 (ip), vehicle: saline) was 108 % of control and 86 % of control and the T/C (endpoint: mean survival time, dose: 0.5 mg/kg/injection, schedule: Q01DX015 (ip), vehicle: water) was 101 % of control. The T/C (endpoint: mean survival time, dose: 0.66 mg/kg/injection, schedule: Q01DX Z (ip), vehicle: saline) was 110 % of control, the T/C (endpoint: mean survival time, dose: 0.75 mg/kg/injection, schedule: Q01DX001 (ip), vehicle: other) was 118 % of control and the T/C (endpoint: mean survival time, dose: 0.78 mg/kg/injection, schedule: Q04DX002 (ip), vehicle: saline) was 106 % of control. The T/C (endpoint: mean survival time, dose: 0.8 mg/kg/injection, schedule: Q01DX Z (ip), vehicle: alkali diluted with CMC) was 96 % of control and 91 % of control, the T/C (endpoint: mean survival time, dose: 1.0 mg/kg/injection, schedule: Q01DX001 (iv), vehicle: other) was 91 % of control and the T/C (endpoint: mean survival time, dose: 1.5 mg/kg/injection, schedule: Q01DX001 (ip), vehicle: other) was 121 % of control. For the same compound, the T/C (endpoint: mean survival time, dose: 1.5 mg/kg/injection, schedule: Q01DX001 (ip), vehicle: saline) was 120 % of control, the T/C (endpoint: mean survival time, dose: 2.0 mg/kg/injection, schedule: Q01DX001 (ip), vehicle: carboxymethylcellulose (CMC)) was 88 % of control and the T/C (endpoint: mean survival time, dose: 2.5 mg/kg/injection, schedule: Q01DX001 (oral), vehicle: water) was 105 % of control. The T/C (endpoint: mean survival time, dose: 5.0 mg/kg/injection, schedule: Q01DX001 (oral), vehicle: water) was 98 % of control and the T/C (endpoint: mean survival time, dose: 10.0 mg/kg/injection, schedule: Q01DX001 (oral), vehicle: water) was 88 % of control.
